Experimental data as given in the kinase profiling compilation of Christmann-Franck et al. (2016).

Experiments:
Assay in all cases: radiometric filter-binding kinase assay, Kinaseprofiler
[1] = biological target: CDK2 CCNA2 (human) (UniProt P24941+P20248); settings: ATP 45 µM
[2] = biological target: HIPK3 (human) (UniProt Q9H422); settings: ATP 15 µM
[3] = biological target: PDGFRB (human) (UniProt P09619); settings: ATP 200 µM
[4] = system: SGK1 (human), O00141 [S422D]; settings: ATP 90 µM
[5] = biological target: SRPK2 (human) (UniProt P78362); settings: ATP 10 µM
Sequence of SRPK2 (human) (P78362 whole entry, looked up): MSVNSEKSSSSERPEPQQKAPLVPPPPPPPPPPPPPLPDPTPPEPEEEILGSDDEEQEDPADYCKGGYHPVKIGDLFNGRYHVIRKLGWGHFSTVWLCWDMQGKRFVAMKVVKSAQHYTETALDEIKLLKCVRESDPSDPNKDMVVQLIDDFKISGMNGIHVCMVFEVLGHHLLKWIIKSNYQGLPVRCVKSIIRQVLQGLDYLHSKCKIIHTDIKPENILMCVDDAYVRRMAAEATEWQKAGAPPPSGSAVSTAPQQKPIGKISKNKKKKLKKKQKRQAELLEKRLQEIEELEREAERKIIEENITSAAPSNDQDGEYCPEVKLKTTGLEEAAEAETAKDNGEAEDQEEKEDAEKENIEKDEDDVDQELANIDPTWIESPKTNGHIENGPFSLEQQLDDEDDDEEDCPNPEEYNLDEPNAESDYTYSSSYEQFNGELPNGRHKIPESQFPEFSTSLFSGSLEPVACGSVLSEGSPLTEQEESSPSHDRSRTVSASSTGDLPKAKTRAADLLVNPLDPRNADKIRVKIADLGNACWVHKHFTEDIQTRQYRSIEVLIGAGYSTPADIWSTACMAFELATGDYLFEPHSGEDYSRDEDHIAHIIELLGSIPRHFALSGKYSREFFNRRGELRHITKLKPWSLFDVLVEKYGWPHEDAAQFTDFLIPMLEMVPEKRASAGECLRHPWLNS

Sequence of SGK1 (human), O00141 [S422D] (O00141 whole entry S422D, looked up): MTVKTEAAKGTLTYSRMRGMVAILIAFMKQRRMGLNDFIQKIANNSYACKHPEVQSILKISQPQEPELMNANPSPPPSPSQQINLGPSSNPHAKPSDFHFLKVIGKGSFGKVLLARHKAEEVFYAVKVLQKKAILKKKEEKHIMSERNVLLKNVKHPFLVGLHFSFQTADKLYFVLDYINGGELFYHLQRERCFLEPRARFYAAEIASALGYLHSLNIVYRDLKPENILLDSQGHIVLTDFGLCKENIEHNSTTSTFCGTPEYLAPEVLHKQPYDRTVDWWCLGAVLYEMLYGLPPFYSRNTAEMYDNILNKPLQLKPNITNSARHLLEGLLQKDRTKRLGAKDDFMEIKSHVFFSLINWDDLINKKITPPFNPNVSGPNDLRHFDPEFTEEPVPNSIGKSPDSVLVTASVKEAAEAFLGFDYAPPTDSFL
Sequence of PDGFRB (human) (P09619 whole entry, looked up): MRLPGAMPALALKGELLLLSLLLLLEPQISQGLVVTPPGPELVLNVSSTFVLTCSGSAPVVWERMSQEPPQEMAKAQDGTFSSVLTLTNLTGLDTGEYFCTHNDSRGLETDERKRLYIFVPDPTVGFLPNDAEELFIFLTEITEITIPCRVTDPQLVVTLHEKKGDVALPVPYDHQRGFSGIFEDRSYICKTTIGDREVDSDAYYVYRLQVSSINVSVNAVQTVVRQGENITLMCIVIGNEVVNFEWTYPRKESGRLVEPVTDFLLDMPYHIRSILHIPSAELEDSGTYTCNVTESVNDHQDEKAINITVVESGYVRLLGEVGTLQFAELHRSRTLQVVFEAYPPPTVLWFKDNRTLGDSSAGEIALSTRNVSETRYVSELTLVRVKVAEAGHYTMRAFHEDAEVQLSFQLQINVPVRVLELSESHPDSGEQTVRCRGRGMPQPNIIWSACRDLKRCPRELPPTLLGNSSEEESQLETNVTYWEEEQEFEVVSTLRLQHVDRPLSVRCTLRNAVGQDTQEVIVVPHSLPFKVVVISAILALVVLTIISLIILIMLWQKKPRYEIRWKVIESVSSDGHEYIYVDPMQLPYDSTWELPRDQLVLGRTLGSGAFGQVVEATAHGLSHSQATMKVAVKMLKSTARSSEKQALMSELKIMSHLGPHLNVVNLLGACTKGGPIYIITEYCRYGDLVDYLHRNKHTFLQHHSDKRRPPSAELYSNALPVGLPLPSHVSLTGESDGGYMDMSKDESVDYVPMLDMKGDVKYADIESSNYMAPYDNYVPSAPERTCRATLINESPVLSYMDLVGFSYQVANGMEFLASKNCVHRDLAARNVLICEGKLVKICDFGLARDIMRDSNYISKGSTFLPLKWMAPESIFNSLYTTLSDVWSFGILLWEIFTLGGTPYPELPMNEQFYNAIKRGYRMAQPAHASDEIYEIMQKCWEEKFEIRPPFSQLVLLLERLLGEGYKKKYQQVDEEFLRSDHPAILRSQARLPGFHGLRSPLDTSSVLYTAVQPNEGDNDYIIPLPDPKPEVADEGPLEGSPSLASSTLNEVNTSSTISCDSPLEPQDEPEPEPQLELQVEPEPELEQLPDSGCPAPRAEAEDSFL
Sequence of HIPK3 (human) (Q9H422 whole entry, looked up): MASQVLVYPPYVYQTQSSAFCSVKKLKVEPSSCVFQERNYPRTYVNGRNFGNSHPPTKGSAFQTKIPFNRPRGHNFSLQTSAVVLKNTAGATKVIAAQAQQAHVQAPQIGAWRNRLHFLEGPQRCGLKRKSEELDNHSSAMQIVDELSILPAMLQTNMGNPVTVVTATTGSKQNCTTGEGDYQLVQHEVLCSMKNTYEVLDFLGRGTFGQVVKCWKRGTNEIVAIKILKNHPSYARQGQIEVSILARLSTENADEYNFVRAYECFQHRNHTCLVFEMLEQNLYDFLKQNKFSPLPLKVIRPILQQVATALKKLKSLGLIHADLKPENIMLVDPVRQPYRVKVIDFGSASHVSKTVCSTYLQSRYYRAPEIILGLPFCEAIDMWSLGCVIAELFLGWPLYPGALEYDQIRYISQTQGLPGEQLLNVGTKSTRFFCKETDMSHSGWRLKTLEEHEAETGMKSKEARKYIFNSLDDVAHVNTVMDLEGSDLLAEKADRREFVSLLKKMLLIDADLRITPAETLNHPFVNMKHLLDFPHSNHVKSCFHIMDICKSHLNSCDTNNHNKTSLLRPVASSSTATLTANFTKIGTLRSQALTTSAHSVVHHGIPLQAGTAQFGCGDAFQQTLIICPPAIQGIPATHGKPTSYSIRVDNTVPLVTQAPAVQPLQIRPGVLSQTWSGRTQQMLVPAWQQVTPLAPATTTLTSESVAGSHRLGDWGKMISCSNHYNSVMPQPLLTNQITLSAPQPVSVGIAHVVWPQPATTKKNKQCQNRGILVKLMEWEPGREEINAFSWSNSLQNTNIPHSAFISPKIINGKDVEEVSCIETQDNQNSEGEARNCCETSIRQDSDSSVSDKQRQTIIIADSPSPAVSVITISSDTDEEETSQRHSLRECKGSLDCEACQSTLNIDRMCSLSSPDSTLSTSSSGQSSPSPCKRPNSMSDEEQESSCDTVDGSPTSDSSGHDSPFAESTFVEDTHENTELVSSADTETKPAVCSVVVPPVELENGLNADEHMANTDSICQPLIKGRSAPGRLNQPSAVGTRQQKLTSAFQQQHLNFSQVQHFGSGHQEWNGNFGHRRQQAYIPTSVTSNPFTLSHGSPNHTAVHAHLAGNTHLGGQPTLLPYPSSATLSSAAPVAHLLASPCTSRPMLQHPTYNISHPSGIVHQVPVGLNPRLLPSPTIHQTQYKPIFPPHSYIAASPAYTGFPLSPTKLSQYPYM
Sequence of CDK2 CCNA2 (human) (P20248 whole entry, looked up, other chains not shown): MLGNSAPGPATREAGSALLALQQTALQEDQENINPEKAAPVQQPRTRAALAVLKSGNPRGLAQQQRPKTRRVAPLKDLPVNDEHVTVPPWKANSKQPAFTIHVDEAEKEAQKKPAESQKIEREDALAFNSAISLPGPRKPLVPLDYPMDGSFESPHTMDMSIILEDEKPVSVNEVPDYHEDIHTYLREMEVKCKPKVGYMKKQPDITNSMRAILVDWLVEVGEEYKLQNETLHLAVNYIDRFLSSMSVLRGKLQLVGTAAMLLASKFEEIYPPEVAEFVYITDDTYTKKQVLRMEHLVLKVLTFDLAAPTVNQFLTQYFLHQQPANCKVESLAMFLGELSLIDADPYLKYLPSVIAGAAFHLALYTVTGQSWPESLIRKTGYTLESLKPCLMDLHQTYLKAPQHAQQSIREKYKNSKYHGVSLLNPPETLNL

residual activity ([1]; compound 1.0 µM): 19% | residual activity ([1]; compound 10.0 µM): 5% | residual activity ([2]; compound 1.0 µM): 88% | residual activity ([2]; compound 10.0 µM): 19% | residual activity ([3]; compound 1.0 µM): 84% | residual activity ([3]; compound 10.0 µM): 26% | residual activity ([4]; compound 1.0 µM): 59% | residual activity ([4]; compound 10.0 µM): 28% | residual activity ([5]; compound 1.0 µM): 96% | residual activity ([5]; compound 10.0 µM): 67%
SMILES: O=C1Nc2ccccc2/C1=C1\Nc2ccccc2\C1=N/O
